Source: patent publication US4335249A, “Herbicidal diphenyl ethers, sulfides, sulfoxides and sulfones” (Rohm and Haas Company, priority 1976, dated 1982)

Experiments:
Assay type in all cases: in vivo
[1] = system: downybrome (Bromus tectorum); assay: Postemergence herbicidal activity, downybrome; conditions: Bromus tectorum, post-emergence, 336 h, Post; for pest or weed control at 4483.4 g/ha: 4 lb/A
Method in brief: (§1)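 Seeds were sown in soil flats and sprayed either right after planting (preemergence) or two weeks after germination (postemergence). Compound in acetone diluted with water was applied at a 50 gal/acre carrier volume at rates in lb/A. About two weeks later, average percent control was scored as percent of plants killed.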

[2] = system: velvetleaf (Abutilon theophrasti); assay: Postemergence herbicidal activity, velvetleaf; conditions: Abutilon theophrasti, post-emergence, 336 h; for pest or weed control at 4483.4 g/ha: 4 lb/A
Method in brief: (§2)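 Sown flats got a foliar or soil spray of compound in water-diluted acetone (carrier equivalent to 50 gallons/acre, rate in pounds per acre), given on the day of planting or, postemergence, once seedlings were two weeks old.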

marigold (Tagetes spp.) [3] = assay: Postemergence herbicidal activity, marigold; conditions: post-emergence, 336 h; for pest or weed control at 4483.4 g/ha: 4 lb/A
Method in brief: as §1

[4] = system: barnyardgrass (Echinochloa crusgalli); assay: Preemergence herbicidal activity, barnyardgrass; conditions: Echinochloa crus-galli, pre-emergence, 336 h, Pre; for pest or weed control at 8966.8 g/ha: 8 lb/A
Method in brief: as §2

marigold (Tagetes spp.) [5] = assay: Preemergence herbicidal activity, marigold; conditions: pre-emergence, 336 h; for pest or weed control at 8966.8 g/ha: 8 lb/A
Method in brief: as §1

wild oats (Avena fatua) [6] = assay: Postemergence herbicidal activity, wild oats; conditions: Avena fatua, post-emergence, 336 h, Post, read-out: % control, Wild oat; for pest or weed control at 4483.4 g/ha: 4 lb/A
Method in brief: as §1

foxtail (Setaria spp.) [7] = assay: Postemergence herbicidal activity, foxtail; conditions: Setaria, post-emergence, 336 h, Post; for pest or weed control at 4483.4 g/ha: 4 lb/A
Method in brief: as §1

foxtail (Setaria spp.) [8] = assay: Preemergence herbicidal activity, foxtail; conditions: Setaria, pre-emergence, 336 h, Pre; for pest or weed control at 8966.8 g/ha: 8 lb/A
Method in brief: as §1

[9] = system: velvetleaf (Abutilon theophrasti); assay: Preemergence herbicidal activity, velvetleaf; conditions: Abutilon theophrasti, pre-emergence, 336 h, Pre; for pest or weed control at 8966.8 g/ha: 8 lb/A
Method in brief: as §1

[10] = system: tomato (Lycopersicon esculentum); assay: Postemergence herbicidal activity, tomato; conditions: Solanum lycopersicum, post-emergence, 336 h, Post; for pest or weed control at 4483.4 g/ha: 4 lb/A
Method in brief: as §1

wild oats (Avena fatua) [11] = assay: Preemergence herbicidal activity, wild oats; conditions: Avena fatua, pre-emergence, 336 h, Pre, read-out: % control, Wild oat; for pest or weed control at 8966.8 g/ha: 8 lb/A
Method in brief: as §1

[12] = system: downybrome (Bromus tectorum); assay: Preemergence herbicidal activity, downybrome; conditions: Bromus tectorum, pre-emergence, 336 h, Pre; for pest or weed control at 8966.8 g/ha: 8 lb/A
Method in brief: as §1

[13] = system: barnyardgrass (Echinochloa crusgalli); assay: Postemergence herbicidal activity, barnyardgrass; conditions: Echinochloa crus-galli, post-emergence, 336 h, Post; for pest or weed control at 4483.4 g/ha: 4 lb/A
Method in brief: as §2

[14] = system: yellow nutsedge (Cyperus esculentus); assay: Postemergence herbicidal activity, yellow nutsedge; conditions: Cyperus, post-emergence, 336 h; for pest or weed control at 4483.4 g/ha: 4 lb/A
Method in brief: as §1

[15] = system: morningglory (Ipomoca spp.); assay: Postemergence herbicidal activity, morningglory; conditions: Ipomoea, post-emergence, 336 h; for pest or weed control at 4483.4 g/ha: 4 lb/A
Method in brief: as §1

[16] = system: cocklebur (Xanthium pensylvanicum); assay: Preemergence herbicidal activity, cocklebur; conditions: Xanthium strumarium, pre-emergence, 336 h; for pest or weed control at 8966.8 g/ha: 8 lb/A
Method in brief: as §1

[17] = system: morningglory (Ipomoca spp.); assay: Preemergence herbicidal activity, morningglory; conditions: Ipomoea, pre-emergence, 336 h; for pest or weed control at 8966.8 g/ha: 8 lb/A
Method in brief: as §1

[18] = system: cocklebur (Xanthium pensylvanicum); assay: Postemergence herbicidal activity, cocklebur; conditions: Xanthium strumarium, post-emergence, 336 h; for pest or weed control at 4483.4 g/ha: 4 lb/A
Method in brief: as §1

[19] = system: tomato (Lycopersicon esculentum); assay: Preemergence herbicidal activity, tomato; conditions: Solanum lycopersicum, pre-emergence, 336 h, Pre; for pest or weed control at 8966.8 g/ha: 8 lb/A
Method in brief: as §1

[20] = system: yellow nutsedge (Cyperus esculentus); assay: Preemergence herbicidal activity, yellow nutsedge; conditions: Cyperus, pre-emergence, 336 h; for pest or weed control at 8966.8 g/ha: 8 lb/A
Method in brief: as §1

| SMILES | pest or weed control at 4483.4 g/ha [1] [%] | pest or weed control at 4483.4 g/ha [2] [%] | pest or weed control at 4483.4 g/ha (marigold (Tagetes spp.) [3]) [%] | pest or weed control at 8966.8 g/ha [4] [%] | pest or weed control at 8966.8 g/ha (marigold (Tagetes spp.) [5]) [%] | pest or weed control at 4483.4 g/ha (wild oats (Avena fatua) [6]) [%] | pest or weed control at 4483.4 g/ha (foxtail (Setaria spp.) [7]) [%] | pest or weed control at 8966.8 g/ha (foxtail (Setaria spp.) [8]) [%] | pest or weed control at 8966.8 g/ha [9] [%] | pest or weed control at 4483.4 g/ha [10] [%] | pest or weed control at 8966.8 g/ha (wild oats (Avena fatua) [11]) [%] | pest or weed control at 8966.8 g/ha [12] [%] | pest or weed control at 4483.4 g/ha [13] [%] | pest or weed control at 4483.4 g/ha [14] [%] | pest or weed control at 4483.4 g/ha [15] [%] | pest or weed control at 8966.8 g/ha [16] [%] | pest or weed control at 8966.8 g/ha [17] [%] | pest or weed control at 4483.4 g/ha [18] [%] | pest or weed control at 8966.8 g/ha [19] [%] | pest or weed control at 8966.8 g/ha [20] [%] | other results |
| --- | --- | --- | --- | --- | --- | --- | --- | --- | --- | --- | --- | --- | --- | --- | --- | --- | --- | --- | --- | --- | --- |
| CCOC(=O)C(C)Oc1ccc(Sc2ccccc2C(F)(F)F)cc1 (centres unmarked) [Example 44, ethyl 2-(4-(2-trifluoromethylphenylthio)phenoxy) propionate] | 0 | 20 | 0 | 80 | 0 | 0 | 20 | 0 | 30 | 0 | 0 | 60 | 0 | 0 | 0 | 0 | 0 | 0 | 0 | 0 |  |
| CCOC(=O)C(C)Oc1ccc(Sc2cccc(C(F)(F)F)c2)cc1 (centres unmarked) [Example 45, Ethyl 2-[4-(3-trifluoromethylphenylthio)phenoxy] propionate] | 20 | 0 | 0 | 0 | 0 | 20 | 30 | 0 | 0 | 80 | 0 | 0 | 20 | 0 | 0 | 0 | 0 | 0 | 0 | 0 |  |
| CCOC(=O)C(C)Oc1ccc(Sc2ccc(C(F)(F)F)cc2)cc1 (centres unmarked) [Example 46] | 30 | 0 | 0 | 70 | 0 | 20 | 30 | 70 | 0 | 80 | 0 | 50 | 50 | 0 | 0 | 0 | 0 | 0 | 0 | 0 |  |
| CCOC(=O)C(C)Oc1ccc(Sc2ccc(C(F)(F)F)cc2C#N)cc1 (centres unmarked) [Example 47] |  |  |  |  |  |  |  |  |  |  |  |  |  |  |  |  |  |  |  |  | pest or weed control at 2241.7 g/ha ([1]; 2 lb/A): 99%; pest or weed control at 2241.7 g/ha ([2]; 2 lb/A): 0%; pest or weed control at 2241.7 g/ha (marigold (Tagetes spp.) [3]; 2 lb/A): 0%; pest or weed control at 2241.7 g/ha ([4]; 2 lb/A): 100%; pest or weed control at 2241.7 g/ha (marigold (Tagetes spp.) [5]; 2 lb/A): 0%; pest or weed control at 2241.7 g/ha (wild oats (Avena fatua) [6]; 2 lb/A): 99%; pest or weed control at 2241.7 g/ha (foxtail (Setaria spp.) [7]; 2 lb/A): 99%; pest or weed control at 2241.7 g/ha (foxtail (Setaria spp.) [8]; 2 lb/A): 95%; pest or weed control at 2241.7 g/ha ([9]; 2 lb/A): 0%; pest or weed control at 2241.7 g/ha ([10]; 2 lb/A): 0%; pest or weed control at 2241.7 g/ha (wild oats (Avena fatua) [11]; 2 lb/A): 100%; pest or weed control at 2241.7 g/ha ([12]; 2 lb/A): 40%; pest or weed control at 2241.7 g/ha ([13]; 2 lb/A): 100%; pest or weed control at 2241.7 g/ha ([14]; 2 lb/A): 0%; pest or weed control at 2241.7 g/ha ([15]; 2 lb/A): 0%; pest or weed control at 2241.7 g/ha ([16]; 2 lb/A): 0%; pest or weed control at 2241.7 g/ha ([17]; 2 lb/A): 0%; pest or weed control at 2241.7 g/ha ([18]; 2 lb/A): 0%; pest or weed control at 2241.7 g/ha ([19]; 2 lb/A): 0%; pest or weed control at 2241.7 g/ha ([20]; 2 lb/A): 0% |
